Patent publication US8821568B2, “Implant modified with non-hydroxylated vitamin D precursors” (Numat Biomedical S.L., priority 2008, dated 2014)

Assays:
Assay type in all cases: cell-based, mouse
MC3T3-E1 cells [1] = test: Real-time RT-PCR of bone markers, plastic wells; conditions: TCP, 2 days
Protocol: To test the effect of the different treatments onto the plastic wells, 96-well plates made of polystyrene were used and the treatments with 7-DHC performed directly onto them. Cells grown onto untreated TCP were added as a control for all the experiments. Cells were seeded at a density of 30,000 cells/cm^2 and they were maintained in α-MEM supplemented with 10% FCS and antibiotics. Culture media was collected after 48 hours, to test cytotoxicity and the production of the hydroxylated forms of vitamin D. Cells were harvested after 2 days of culture using Trizol reagent (Roche Diagnostics, Mannheim, Germany), to analyse early gene expression response of several osteoblast differentiation markers and enzymes involved in vitamin D synthesis using real-time RT-PCR.
RNA was isolated from cells using a monophasic solution of phenol and guanidine thiocyanate (Trizol, Roche Diagnostics, Mannheim, Germany) according to the manufacturer's protocol. RNA was quantified at 260 nm using a Nanodrop spectrophotometer (NanoDrop Technologies, Wilmington, Del., USA).
Total RNA previously isolated was reverse-transcribed to cDNA using High Capacity RNA to cDNA kit (Applied Biosystems, Foster City, Calif.) according to the protocol of the supplier. The same amount of total RNA from each sample was converted into cDNA. Each cDNA was diluted ¼ and aliquots were stored at −20° C. until the PCR reactions were carried out.
Real-time RT-PCR was performed for two reference genes: 18S ribosomal RNA (18S rRNA), glyceraldehyde-3-phosphate dehydrogenase (GAPDH), and 11 target genes alkaline phospathase (ALP), Interleukin 6 (IL-6), Collagen (Coll-1), Osteocalcin (OC), Bone Morphogenetic Protein 2 (BMP-2), Osterix (Osx), Receptor activator of nuclear factor kappa-B ligand (RANKL), Osteoprogesterin (OPG) and genes involved in vitamin D synthesis such as Vitamin D3 25-hydroxylase (CYP27A1), 25 hydroxyvitamin D3-1-alpha hydroxylase (CYP27B1) and 1,25-dihydroxyvitamin D3 24-hydroxylase (CYP24A1).
Real-time PCR were performed in the Lightcycler 480® (Roche Diagnostics, Germany). Each reaction contained 5 μl of LightCycler-FastStart DNA Master^PLUS SYBR Green I (Roche Diagnostics, Mannheim, Germany), 0.5 μM of the sense and antisense specific primers (Table 1) and 3 μl of the cDNA dilution in a final volume of 10 μl. The normal amplification program consisted of a preincubation step for denaturation of the template cDNA (10 min 95° C.), followed by 45 cycles consisting of a denaturation step (10 s 95° C.), an annealing step (10 s 60° C., except for ALP that was 10 s at 65° C., OSX with 10 s at 68° C. and CYP24A1 at 58° C. 10 s) and an extension step (10 s 72° C.). After each cycle, fluorescence was measured at 72° C. Every run included a negative control without cDNA template. To confirm amplification specificity, PCR products were subjected to a melting curve analysis on the LightCycler and subsequently 2% agarose/TAE gel electrophoresis, Tm and amplicon size, respectively.
To allow relative quantification after PCR, real-time efficiencies were calculated from the given slopes in the LightCycler 480 software (Roche Diagnostics, Mannheim, Germany) using serial dilutions. Relative quantification after PCR was calculated by normalizing target gene concentration in each sample by the concentration mean of the two reference genes in given sample using the “advanced relative quantification method” provided by the LightCycler 480 analysis software.

MC3T3-E1 cells [2] = test: ELISA of 25-D3 released to the culture media, coated titanium implants; conditions: Ti implants; 0.2 nmols; 48 h; UV exposure 15 minutes; vs ethanol-treated Ti samples
Protocol: To test the effect of the surface modification, 96-well plates were used. Ti disks were placed into the wells and treatments and UV-activation were performed over there. Cells grown onto untreated polystyrene tissue culture plastic (TCP) were added as a control for all the experiments. Cells were seeded at a density of 30,000 cells/cm^2 and they were maintained in α-MEM supplemented with 10% FCS and antibiotics. Culture media was collected after 48 hours, to test cytotoxicity and the production of the hydroxylated form of vitamin D, 25-D3. Cells were harvested after two days of culture using Trizol reagent (Roche Diagnostics, Mannheim, Germany), to analyze gene expression of several osteoblast differentiation markers and enzymes involved in vitamin D synthesis using real-time RT-PCR. On the other hand, MC3T3-E1 cells were harvested after 21 days to measure calcium content and ALP activity in the cell monolayer.
25-D3 released to the culture media after 2 days of treatment were analyzed by enzyme-linked immunosorbent assay (ELISA). Aliquots from the culture media were centrifuged at 1800 rpm for 5 minutes at 4° C. and supernatants were used for 25-D3 and determination following instructions described by the manufacturer (Immunodiagnostic Systems Ltd, Boldon, Tyne and Wear, UK).

MC3T3-E1 cells [3] = test: Real-time RT-PCR of hydroxylase enzymes (CYP27A1, CYP27B1), coated titanium implants; conditions: Ti implants, 48 h
Protocol: To test the effect of the surface modification, 96-well plates were used. Ti disks were placed into the wells and treatments and UV-activation were performed over there. Cells grown onto untreated polystyrene tissue culture plastic (TCP) were added as a control for all the experiments. Cells were seeded at a density of 30,000 cells/cm^2 and they were maintained in α-MEM supplemented with 10% FCS and antibiotics. Culture media was collected after 48 hours, to test cytotoxicity and the production of the hydroxylated form of vitamin D, 25-D3. […]
RNA was isolated from cells using a monophasic solution of phenol and guanidine thiocyanate (Trizol, Roche Diagnostics, Mannheim, Germany) according to the manufacturer's protocol. RNA was quantified at 260 nm using a Nanodrop spectrophotometer (NanoDrop Technologies, Wilmington, Del., USA). […]
To allow relative quantification after PCR, real-time efficiencies were calculated from the given slopes in the LightCycler 480 software (Roche Diagnostics, Mannheim, Germany) using serial dilutions. Relative quantification after PCR was calculated by normalizing target gene concentration in each sample by the concentration mean of the two reference genes in given sample using the Advanced relative quantification method provided by the LightCycler 480 analysis software.

In the case of CC(C)CCC[C@@H](C)[C@H]1CC[C@H]2C3=CC=C4C[C@@H](O)CC[C@]4(C)[C@H]3CC[C@]12C [7-DHC, 7-dehydrocholesterol], the “Collagen type-1 mRNA levels” value (MC3T3-E1 cells [1]; 0.2 nmols UV-treated vs same treatment non UV-irradiated) is reported as “increased mRNA levels”, the “Osteocalcin mRNA levels” value (MC3T3-E1 cells [1]; 2 nmols UV-treated vs same treatment non UV-irradiated) is reported as “statistical differences” and the “Bone morphogenetic protein 2 mRNA levels” value (MC3T3-E1 cells [1]; 2×10^−2 nmols UV-treated vs non-irradiated) is reported as “significantly lower levels”. The “ALP mRNA levels” value (MC3T3-E1 cells [1]; 2×10^−3 nmols UV-treated vs same treatment non UV-irradiated) was “Higher ALP mRNA levels”, the Osterix expression levels (MC3T3-E1 cells [1]; all UV-treated groups vs non irradiated, significant at 0.2 and 2 nmols) was “Higher expression levels” and the “IL-6 mRNA levels” value (MC3T3-E1 cells [1]; different doses, UV-treated vs UV-untreated) was “No significant differences”. The “RANKL mRNA levels” value (MC3T3-E1 cells [1]; some UV-untreated samples compared to their control) was “lower”, the “25-D3 secretion to the cell culture media” value (MC3T3-E1 cells [2]) was “increased 25-hydroxyvitamin D3 (25-D3) production” and the CYP27B1 gene expression (MC3T3-E1 cells [3]; increasing UV exposure time, significant vs UV-untreated at 15 and 30 min) was “upregulated”. For the same compound, the “CYP27A1 mRNA gene expression” value (MC3T3-E1 cells [3]; with UV irradiation time, maximum after 15 min) was “trend to increase”.
